Results from patent publication US7163800B2, “Methods of screening compositions for G protein-coupled receptor desensitization inhibitory activity” (Molecular Devices Corporation, priority 2000, dated 2007).

How the values were obtained:
[1] = molecular target: human vasopressin V2 receptor (V2R) (Homo sapiens, UniProt P30518); assay: arrestin-GFP localization (Fgrains) assay in U20S-V2R/ArrGFP cells, arginine vasopressin stimulated; type: cell-based; conditions: 100 nM arginine vasopressin
Experimental: The assay was carried out using two different “double stable” human osteosarcoma cell (U20S) lines. […] The other cell line (U20S-V2R/ArrGFP) stably expressed V2R and the same arrestin-GFP conjugate.
The two cell lines (U20S-β2AR/ArrGFP and U20S-V2R/ArrGFP) were separately plated at 7000 cells/well on 384 well glass bottom plates. Two plates of U20S-β2AR/ArrGFP cells were prepared and two plates of U20S-V2R/ArrGFP cells were prepared.
Growth media was replaced with serum free media (i.e., Eagle's minimum essential medium (EMEM) buffered with 10 mM HEPES (N-2-Hydroxyethylpiperazine-N′-2-ethanesulfonic acid)) 24 hours after plating of the cells.
Each test compound was solvated using 100% dimethyl sulfoxide (DMSO). Multiple solutions of each compound were prepared at varying concentrations for testing in separate wells of each plate. If needed, the solutions were sonicated and heated to increase solubility. After preparation of the compound solutions, they were shielded from light.
Each of the solutions of varying concentrations of the fifteen compounds was added to a well on each of the four plates. The β2AR RT and V2R RT plates were incubated for 30 minutes at room temperature and atmospheric CO2.
Agonist was then added to each well. […] The β2AR RT and V2R RT plates were incubated for 30 minutes at room temperature and atmospheric CO2.
Each assay was then terminated using 1% paraformaldehyde containing 1 μM DRAQ5 DNA probe to fix the cells. The cells were analyzed using a pre-production model (alpha unit) of the IN Cell Analyzer 3000 (Amersham Biosciences), which is a line scanning, confocal imaging system. The IN Cell Analyzer 3000 was used to quantitate the localization of the arrestin-GFP conjugate for the cells in each well using the Amersham Biosciences granularity analysis GRNO algorithm. This algorithm finds the nucleus of cells and then dilates out a specified distance in which fluorescent spots or “grains” of arrestin-GFP localization are identified based on size and fluorescent intensity. The average of the fluorescent intensity of the identified grains per cell in an acquired image (i.e., Fgrains) was determined for each well on the plates.
The graphs for each compound as well as for the propanolol control are illustrated in FIGS. 7–22.
The curve-fitting program allowed the minimum and maximum values as well as the slope and EC50 values to vary rather than fixing the values to specified or collected values.

[2] = molecular target: HA-tagged human β2-adrenergic receptor (β2AR) (Homo sapiens, UniProt P07550); assay: arrestin-GFP localization (Fgrains) assay in U20S-β2AR/ArrGFP cells, isoproterenol stimulated; conditions: 100 nM isoproterenol
Experimental: Each of the fifteen compounds was separately screened for GPCR desensitization inhibitory activity against HA-tagged human β2-adrenergic receptor (β2AR) and against human vasopressin V2 receptor (V2R). In addition, the effects of temperature and carbon dioxide (CO2) were evaluated with respect to each compound.

β2AR and V2R = conditions: inhibitory activity shown for both β2AR and V2R
Source text: Each of the fifteen compounds was separately screened for GPCR desensitization inhibitory activity against HA-tagged human β2-adrenergic receptor (β2AR) and against human vasopressin V2 receptor (V2R).
As indicated by the Fgrains values for the cells in the Basal and Stimulated control wells, the Fgrains value determined by the IN Cell Analyzer 3000 in this example was functionally a measure of the average extent of desensitization in the cells in each well.

[3] = molecular target: HA-tagged human β2-adrenergic receptor (human) (UniProt P07550)
[4] = V2R CO2 plate: 37° C., 5% CO2/95% O2
[5] = V2R RT plate: room temperature, atmospheric CO2
[6] = B2AR CO2 plate: 37° C., 5% CO2/95% O2
[7] = B2AR RT plate: room temperature, atmospheric CO2

Compound	Max Rsp (change between fitted maximum and fitted minimum Fgrains) [1, 4]	Min (fitted minimum Fgrains) [1, 4]	slope of concentration-response curve [1, 4]	Max Rsp (change between fitted maximum and fitted minimum Fgrains) [1, 5]	Min (fitted minimum Fgrains) [1, 5]	slope of concentration-response curve [1, 5]	Max Rsp (change between fitted maximum and fitted minimum Fgrains) [2, 6]	Min (fitted minimum Fgrains) [2, 6]	slope of concentration-response curve [2, 6]	Max Rsp (change between fitted maximum and fitted minimum Fgrains) [2, 7]	Min (fitted minimum Fgrains) [2, 7]	slope of concentration-response curve [2, 7]	indication of non-receptor-specific GPCR desensitization inhibitory activity (β2AR and V2R)	further results
C[n+]1cc2c3c(ccc2c2ccc4cc5c(cc4c21)OCO5)OCO3 [Sanguinarine Chloride (S5890), Sanguinarine Chloride]	546	27	2.1	533	27	2.0	312	108	3.3	340	61	1.3	non-receptor-specific GPCR desensitization inhibitory activity	EC50 ([2]; EC50, B2AR CO2 plate: 37° C., 5% CO2/95% O2): 7 µM; EC50 ([2]; EC50, B2AR RT plate: room temperature, atmospheric CO2): 7.7 µM
Bisindolylmaleimide VI	499	94	0.8	696	−118	1.2	270	170	2.4	210	213	4.4	non-receptor-specific GPCR desensitization inhibitory activity	EC50 [1, 4]: 24.6 µM; pEC50 [1, 4]: 4.6; EC50 [1, 5]: 18.3 µM; pEC50 [1, 5]: 4.7; EC50 [2, 6]: 12.7 µM; pEC50 [2, 6]: 4.9; EC50 [2, 7]: 9 µM; pEC50 [2, 7]: 5.0
arrestin-GFP conjugate of the Renilla reniformis green fluorescent protein fused in frame to the carboxyl terminus of rat β-arrestin2 (from UniProt P29067)	–	–	–	–	–	–	–	–	–	–	–	–	–	Fgrains (average fluorescent intensity of identified grains of arrestin-GFP localization per cell), Stimulated against Basal control wells, B2AR CO2 plate [3]: 431 Fgrains
